The values below are quoted from earlier work in patent US10485808B2, “Selective progesterone receptor modulators (SPRM) and stabilized estrogen level in patient” (BAYER PHARMA AKTIENGESELLSCHAFT, priority 2017, dated 2019).

Read-outs that look alike come from different tables or passages of the source.

This data set has as its system patients with Uterine Fibroids (UF). As to conditions: cited from earlier work; for Patients with moderate to severe hot flushes: 12-13 weeks of treatment; for Serum estradiol levels after treatment: after 12-13 weeks treatment.

Turning to `CC(=O)O[C@]1(C(C)=O)CC[C@H]2[C@@H]3CCC4=CC(=O)CCC4=C3[C@@H](c3ccc(N(C)C)cc3)C[C@@]21C` [Ulipristal acetate], where the note is “5 mg/day”, the “Patients with moderate to severe hot flushes” value is 11%, the “Serum estradiol levels after treatment” value is given as 64 pg/mL and the “Amenorrhoea rate (secondary endpoint)” value is recorded as 75%. The “Hot flushes of any severity” value (5 mg) is on record as 26%. Besides, where the note is “10 mg/day”, the “Patients with moderate to severe hot flushes” value is recorded as 10%, the “Serum estradiol levels after treatment” value was 61 pg/mL and the “Amenorrhoea rate (secondary endpoint)” value is on record as 89%. In addition, under “10 mg”, the “Hot flushes of any severity” value is listed as 24%.
